From paper PMC8998618, “A Pharmacokinetic and Metabolism Study of the TRPC6 Inhibitor SH045 in Mice by LC-MS/MS” (International Journal of Molecular Sciences, 2022)

Experiment: time-dependent metabolization (stability) in MLM and IVIVE of hepatic clearance
Assay type: in vitro ADME, mouse
Description: In the widely used concept of the “well-stirred” model, liver represents a single uniform compartment. It is further assumed that the concentration of unbound SH045 leaving the liver is in equilibrium with its unbound concentration in hepatocytes (detailed calculation in Supplementary Materials SM8, summarized values in SR4). Briefly, microsomal intrinsic clearance was converted to hepatic clearance: CLhep = Q × fu × CLint/Q + (fu × CLint), where fu is the unbound fraction of SH045 in blood and Q is the hepatic blood flow in mice.
For this purpose, remaining concentrations of SH045 in microsomes were determined to calculate the intrinsic microsomal clearance CLint,micr, the intrinsic clearance CLint, equal to the maximum enzyme activity of liver and for in vitro-in vivo exploration of hepatic clearance CLhep in mouse and human using the well-stirred model. The algorithm for these calculations is given in detail in the Supplementary Materials SM8. […]
All microsome incubations were stopped with 1 mL ice -cold ACN containing 5 µg/mL IS, vortexed for 1 min and cooled at -20 °C for 10 min. […]
SM6 Metabolization studies in MLM and HLM and calculation of hepatic clearance For determination of vmax and Km of the NADPH-dependent microsomal depletion of SH045, the following incubations were performed for MLM and HLM, respectively. 2 µL SH045 (final concentration 0.5 – 100 µM, in triplicate), 12.5 µL HLM or MLM (finally 0.5 mg/mL protein) and 460.5 µL DPBS were vortexed and preincubated 37 °C for 5 min. The reaction was initiated by addition of 25 µL analogously pre-incubated β-NADPH (finally: 1 mM).
After gentle shaking at 37 °C and 300 rpm for 10 min, incubations were terminated and samples prepared as described […]
Testosterone (10 µM in ACN/DPBS 2/3, v/v) instead of SH045 was used as positive control and analyzed by an appropriate HPLC method with UV detection.
Negative controls contained either no NADPH, no MLM or HLM or none of them. […]
Menten constant Km were calculated using Lineweaver-Burk transformation. From Km an appropriate drug concentration of 2 µM was derived as prerequisite for experimental in vitro determination of t1/2 required for further exploration of clearance.
For this purpose, microsomes were incubated as described above with 2 µM SH045 for indicated time intervals up to 30 min. The remaining concentrations of SH045 were determined to calculate the intrinsic microsomal clearance CLint,micr the intrinsic clearance CLint, equal to the maximum enzyme activity of liver and for in vitro-in vivo exploration of hepatic clearance CLhep in mouse and human using the “well-stirred” model [6].
SM7 Identification of metabolism pathways and metabolites of SH045 in MLM and HLM To determine possible metabolism pathways of SH045 in MLM and HLM, an in vitro inhibition approach was performed with CYP-isoform specific inhibitors (final concentration): ciprofloxacin (CYP1A2; 150 µM), pilocarpine (CYP2A6; 50 µM), ticlopidine (CYP2B6; 5 µM), quercetin (CYP2C8; 2 µM), sulfaphenazole (CYP2C9; 10 µM), fluvoxamine (CYP2C19; 10 µM), quinidine (CYP2D6; 10 µM), 4-methyl pyrazole (CYP2E1; 100 µM) and ketoconazole (CYP3A4; 1 µM) [7, 8]. The inhibitors were dissolved in DPBS and appropriate methanol, the organic solvents not […]
SH045 (2 µM) was pre-incubated with MLM or HLM (0.5 mg/mL) and the specific inhibitor for 5 min at 37 °C in DPBS.
Ticlopidine, a time-dependent inhibitor was pre-incubated for 15 min [9]. Incubations were performed in triplicate with NADPH (1 mM) in a final volume of 500 µL for 2 min and 10 min with pre-incubated MLM and HLM, respectively, terminated with 1 mL ice-cold ACN and processed as described above for LC-MS/MS. A sample without any inhibitor served as a positive control. Incubations with an equal volume of DMSO instead of SH045 and samples without NADPH, MLM or HLM or both, respectively, served as negative controls.
To explore metabolites of SH045 formed by microsomes, D PBS, alamethicin (25 µg/mL) [10] and MLM or HLM (1.0 […]

microsomal CLint at 2 µM (CD-1, mouse, liver microsomes, mouse liver microsomes, read-out: CLint, micr): 1170 µL/min/mg
CLint scaled at 2 µM (CD-1, mouse, liver microsomes, mouse, scaled from CLint,micr): 276 L/h/kg
half-life at 2 µM (male, CD-1, pH 7.4, mouse liver microsomes 0.5 mg/mL, 2 µM SH045, NADPH): 1.18 min
CLint, micr (mouse liver microsomes): 1173.6 µL/min/mg
CLhep (mouse, predicted by well-stirred model, fu 0.3%, Q 90 mL/min/kg): 0.717 L/h/kg
CLint (mouse, scaled from CLint,micr): 275.68 L/h/kg
SMILES: C=C[C@@](C)(O)CC[C@H]1C(=C)C[C@H](OC(=O)NC)[C@H]2C(C)(C)CCC[C@]12C [SH045, (1S,4S,4aR,8aS)-4-((S)-3-Hydroxy-3-methylpent-4-en-1-yl)-4a,8,8-trimethyl-3-methylenedecahydronaphthalen-1-yl methylcarbamate]
